Laboratory results taken from PubChem BioAssay (NCI).
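Following 48 hours of exposure in 96-well plates, responses at five concentrations were used to interpolate endpoints linearly. GI50 is the concentration that inhibits growth by half. The concentration for full growth arrest is given as TGI.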

Experiments:
Test in all cases: NCI tumour cell line growth inhibition, 48 h
MDA-MB-435 = test system: MDA-MB-435
MDA-MB-231 breast = test system: MDA-MB-231 breast
MDA-N = test system: MDA-N
T-47D breast = test system: T-47D breast
HS 578T breast = test system: HS 578T breast
PC-3 prostate = test system: PC-3 prostate
DU-145 prostate = test system: DU-145 prostate
MCF7 breast = test system: MCF7 breast
HOP-18 NSCLC = test system: HOP-18 NSCLC
DLD-1 colon = test system: DLD-1 colon
M19-MEL melanoma = test system: M19-MEL melanoma
LXFL 529 NSCLC = test system: LXFL 529 NSCLC
XF 498 CNS = test system: XF 498 CNS

Compound: O=C1c2ccccc2C(=O)c2c(Nc3ccc4c5c(cccc35)C(=O)c3ccccc3-4)cccc21
- TGI (MDA-MB-435): > 100 µM
- TGI (MDA-MB-231 breast): > 100 µM
- TGI (MDA-N): > 100 µM
- TGI (T-47D breast): > 100 µM
- TGI (HS 578T breast): > 100 µM
- TGI (PC-3 prostate): > 100 µM
- TGI (DU-145 prostate): > 100 µM

Compound: O=c1ccc2nc(-c3ccccc3)nn(-c3ccccn3)c-2c1
- GI50 (MDA-MB-435): 15.4 µM
- TGI (MDA-MB-435): 33.9 µM
- GI50 (MDA-MB-231 breast): 9.87 µM
- TGI (MDA-MB-231 breast): 29.5 µM
- GI50 (T-47D breast): 2.03 µM
- TGI (T-47D breast): 6.79 µM
- GI50 (HS 578T breast): 23.4 µM
- TGI (HS 578T breast): 98.8 µM
- GI50 (PC-3 prostate): 13.2 µM
- TGI (PC-3 prostate): 35.7 µM
- GI50 (MCF7 breast): 2.13 µM
- TGI (MCF7 breast): 5.88 µM
- GI50 (DU-145 prostate): 15.5 µM
- TGI (DU-145 prostate): 30.7 µM

Compound: N#CN=C(N)NC(=O)/C=C/C=C/c1ccc(Cl)cc1
- TGI (HOP-18 NSCLC): > 100 µM
- TGI (DLD-1 colon): > 100 µM
- TGI (M19-MEL melanoma): > 100 µM
- TGI (LXFL 529 NSCLC): > 100 µM

Compound: CC(C)(C)N1C(C(=O)c2ccccc2)C1c1ccccc1 (stereo unspecified)
- TGI (DLD-1 colon): > 100 µM
- TGI (M19-MEL melanoma): > 100 µM
- TGI (LXFL 529 NSCLC): > 100 µM

Compound: CC(=O)OC(C)C1C2=C(C(=O)CC1(C)O)C(=O)c1c(ccc(-c3ccc4c(c3O)C(=O)C3=C(C4=O)C(C(C)OC(C)=O)C(C)(O)CC3=O)c1O)C2=O (stereo unspecified)
- TGI (MDA-MB-435): 4.19 µM
- TGI (MDA-MB-231 breast): 4.98 µM
- TGI (HOP-18 NSCLC): 1.74 µM
- TGI (MDA-N): 7.34 µM
- TGI (T-47D breast): 4.61 µM
- TGI (HS 578T breast): 5 µM
- TGI (PC-3 prostate): 8.74 µM
- TGI (DLD-1 colon): 2.43 µM
- TGI (MCF7 breast): 4.06 µM
- TGI (M19-MEL melanoma): 2.7 µM
- TGI (DU-145 prostate): 18.3 µM
- TGI (LXFL 529 NSCLC): 1.51 µM

Compound: N#CCCCC[N+]12CN3CN(CN(C3)C1)C2
- TGI (MDA-MB-435): > 100 µM
- TGI (MDA-MB-231 breast): > 100 µM
- TGI (MDA-N): > 100 µM
- TGI (T-47D breast): > 100 µM
- TGI (HS 578T breast): > 100 µM
- TGI (PC-3 prostate): > 100 µM
- TGI (MCF7 breast): > 100 µM
- TGI (DU-145 prostate): > 100 µM

Compound: CC(C)(C)OC(=O)c1cnc(Cl)cn1
- TGI (MDA-MB-435): > 100 µM
- TGI (MDA-MB-231 breast): > 100 µM
- TGI (T-47D breast): > 100 µM
- TGI (HS 578T breast): > 100 µM
- TGI (PC-3 prostate): > 100 µM
- TGI (MCF7 breast): > 100 µM
- TGI (DU-145 prostate): > 100 µM

Compound: Nc1nc(N)c2c(n1)NC(=O)c1c(c3ccccc3n1Cc1ccc(Cl)cc1)C2
- TGI (MDA-MB-435): 91.1 µM
- TGI (MDA-N): 34.5 µM
- TGI (T-47D breast): 43.9 µM
- TGI (HS 578T breast): > 100 µM
- TGI (PC-3 prostate): > 100 µM
- TGI (MCF7 breast): 88.5 µM
- TGI (DU-145 prostate): 29.3 µM

Compound: CC(C)=CCNc1ncnc2nc[nH]c12
- TGI (MDA-MB-435): > 100 µM
- TGI (MDA-MB-231 breast): > 100 µM
- TGI (MDA-N): > 100 µM
- TGI (T-47D breast): > 100 µM
- TGI (HS 578T breast): > 100 µM
- TGI (PC-3 prostate): > 100 µM
- TGI (MCF7 breast): > 100 µM
- TGI (DU-145 prostate): > 100 µM

Compound: COc1ccc(C[C@H](N)C(=O)NC2C(CO)OC(n3cnc4c(N(C)C)ncnc43)C2O)cc1 (stereo partly specified)
- TGI (M19-MEL melanoma): 1.54 µM
- TGI (LXFL 529 NSCLC): 0.305 µM
- TGI (XF 498 CNS): 0.166 µM

Compound: COC(=O)Nc1nc2cc(OC)c(OC)cc2c(=O)[nH]1
- TGI (MDA-MB-231 breast): > 100 µM
- TGI (MDA-N): 7.99 µM
- TGI (T-47D breast): > 100 µM
- TGI (HS 578T breast): > 100 µM
- TGI (PC-3 prostate): 71 µM
- TGI (MCF7 breast): > 100 µM
- TGI (DU-145 prostate): > 100 µM

Compound: N=C(c1ccc2ccccc2c1)c1ccccc1Cc1ccccc1
- TGI (MDA-MB-435): 80.7 µM
- TGI (MDA-MB-231 breast): > 100 µM
- TGI (MDA-N): > 100 µM
- TGI (T-47D breast): 55.7 µM
- TGI (PC-3 prostate): > 100 µM
- TGI (MCF7 breast): > 100 µM
- TGI (DU-145 prostate): 96.6 µM

Compound: CCOC(=O)C12CCC(=O)C=C1[C@@H](C)C(=O)CC2 (stereo partly specified)
- TGI (DLD-1 colon): > 100 µM
- TGI (M19-MEL melanoma): > 100 µM
- TGI (LXFL 529 NSCLC): > 100 µM
- TGI (XF 498 CNS): > 100 µM

Compound: CSc1nc(Cl)c(Br)c(Sc2nc(N)nc3nc[nH]c23)n1
- TGI (DLD-1 colon): 24.4 µM
- TGI (M19-MEL melanoma): 23.4 µM
- TGI (LXFL 529 NSCLC): 18.7 µM
- TGI (XF 498 CNS): 30.1 µM

Compound: NC(=O)C(N)=O
- TGI (HOP-18 NSCLC): > 100 µM
- TGI (DLD-1 colon): > 100 µM
- TGI (M19-MEL melanoma): > 100 µM
- TGI (LXFL 529 NSCLC): > 100 µM
- TGI (XF 498 CNS): > 100 µM

Compound: O=C(CSc1nc2ccccc2s1)c1sc2sc3ccccc3[n+]2c1[O-]
- TGI (MDA-MB-435): > 100 µM
- TGI (MDA-MB-231 breast): > 100 µM
- TGI (MDA-N): > 100 µM
- TGI (T-47D breast): > 100 µM
- TGI (HS 578T breast): > 100 µM
- TGI (PC-3 prostate): > 100 µM
- TGI (MCF7 breast): > 100 µM
- TGI (DU-145 prostate): > 100 µM

Compound: CC(C)c1cc(CN(C)C)c(O)c(C(C)(C)C)c1
- TGI (MDA-MB-435): > 100 µM
- TGI (MDA-MB-231 breast): > 100 µM
- TGI (MDA-N): 73.3 µM
- TGI (T-47D breast): 58.1 µM
- TGI (HS 578T breast): > 100 µM
- TGI (PC-3 prostate): 56.7 µM
- TGI (MCF7 breast): 30.1 µM
- TGI (DU-145 prostate): > 100 µM
